Experimental findings from patent US20260374773A1, “MULTI-CYCLIC IRAK AND FLT3 INHIBITING COMPOUNDS AND USES THEREOF” (CHILDREN'S HOSPITAL MEDICAL CENTER, priority 2022, published 2026) are described below.

The test system of the first experiment is NF-κB. In words: NF-κB SEAP reporter assay in THP-1-Blue NF-κB cells, hIL1B stimulated. In kind it is cell-based. As to conditions: Table 15; THP-1-Blue cells, 1 ng/ml hIL1B, 24 h; read-out: NF-κB IL1B IC50. On the procedure: (§1) THP-1-Blue NF-κB cells (InvivoGen) carrying a stable integrated NF-κB-inducible secreted embryonic alkaline phosphatase (SEAP) reporter construct were plated at a concentration of 1×10^5 cells per well. The cells were stimulated with Pam3CSK4 (1 ng/ml) or hIL1B (1 ng/ml). After 10-20 minutes, the cells were then treated with vehicle (DMSO) or serial dilutions of the test compounds (10 doses tested for each test compound, with a […] starting at 1 μM or 3 μM) with a final volume of 200 μL for 24 hours at 37 °C. After 24 hours, the cells were centrifuged and 20 μL supernatant was incubated with 180 μL QUANTI-Blue reagent at 37 °C for 30-60 minutes. The levels of NF-κB-induced was measured in a microplate reader at 620 nm.
as §1, with “1 mM” for “1 μM”, “3 mM)” for “3 μM)”, “200 mL” for “200 μL”, “20 mL” for “20 μL”, “180 mL” for “180 μL”, “NF-κB-induced gene expression were” for “NF-κB-induced was”
Turning to `COc1cn2ncc(-c3nc(N[C@H]4CNCC[C@@H]4F)ccc3F)c2nc1C1CC1` [Compound 3, 6-(5-cyclopropyl-6-methoxypyrazolo[1,5-a]pyrimidin-3-yl)-5-fluoro-N-((3S,4S)-4-fluoropiperidin-3-yl)pyridin-2-amine], the IC50 (commonly the midpoint of a concentration-inhibition curve) worked out at 26 nM. Consider `COc1cn2ncc(-c3nc(N[C@@H]4CCCNC4)ccc3F)c2nc1C1CC1` [Compound 2, (R)-6-(5-cyclopropyl-6-methoxypyrazolo[1,5-a]pyrimidin-3-yl)-5-fluoro-N-(piperidin-3-yl)pyridin-2-amine], for which the IC50 is 94 nM. The same measure, in the same setting: to `COc1cn2ncc(-c3cccc(N[C@H]4CNCC[C@@H]4F)n3)c2nc1C1CC1` [Compound 21, 6-(5-cyclopropyl-6-methoxypyrazolo[1,5-a]pyrimidin-3-yl)-N-((3S,4S)-4-fluoropiperidin-3-yl)pyridin-2-amine] belongs 342 nM; to `COc1cn2ncc(-c3nc(N[C@H]4CNC[C@@H]4F)c(F)cc3F)c2nc1C(C)(C)O` [Compound 12, 2-(3-(3,5-difluoro-6-(((3S,4S)-4-fluoropyrrolidin-3-yl)amino)pyridin-2-yl)-6-methoxypyrazolo[1,5-a]pyrimidin-5-yl)propan-2-ol], 41 nM. Still for that read-out and setting: to `COc1cn2ncc(-c3cccc(N[C@@H]4CCCNC4)n3)c2nc1C1CC1` [Compound 20, (R)-6-(5-cyclopropyl-6-methoxypyrazolo[1,5-a]pyrimidin-3-yl)-N-(piperidin-3-yl)pyridin-2-amine] belongs 646 nM; to `COc1cn2ncc(-c3cccc(N[C@H]4CNC[C@@H]4F)n3)c2nc1C1CC1` [Compound 19, 6-(5-cyclopropyl-6-methoxypyrazolo[1,5-a]pyrimidin-3-yl)-N-((3S,4S)-4-fluoropyrrolidin-3-yl)pyridin-2-amine], 97 nM; to `COc1cn2ncc(-c3nc(N[C@H]4CNCC[C@@H]4F)c(C#N)cc3F)c2nc1C(C)(C)O` [Compound 10, 5-fluoro-2-(((3S,4S)-4-fluoropiperidin-3-yl)amino)-6-(5-(2-hydroxypropan-2-yl)-6-methoxypyrazolo[1,5-a]pyrimidin-3-yl)nicotinonitrile], 41 nM. On the same count and under the same terms, to `COc1cn2ncc(-c3nc(N[C@@H]4CCCNC4)c(C#N)cc3F)c2nc1C(C)(C)O` [Compound 9, (R)-5-fluoro-6-(5-(2-hydroxypropan-2-yl)-6-methoxypyrazolo[1,5-a]pyrimidin-3-yl)-2-(piperidin-3-ylamino)nicotinonitrile] belongs 88 nM; to `COc1cn2ncc(-c3nc(N[C@H]4CNCC[C@@H]4F)c(F)cc3F)c2nc1C1CC1` [Compound 22, 6-(5-cyclopropyl-6-methoxypyrazolo[1,5-a]pyrimidin-3-yl)-3,5-difluoro-N-((3S,4S)-4-fluoropiperidin-3-yl)pyridin-2-amine], 19 nM; to `COc1cn2ncc(-c3nc(N[C@H]4CNCC[C@@H]4F)c(F)cc3F)c2nc1C(C)(C)O` [Compound 13, 2-(3-(3,5-difluoro-6-(((3S,4S)-4-fluoropiperidin-3-yl)amino)pyridin-2-yl)-6-methoxypyrazolo[1,5-a]pyrimidin-5-yl)propan-2-ol], 73 nM. Turning to `COc1cn2ncc(-c3ccc(F)c(N[C@H]4CNCC[C@@H]4F)n3)c2nc1C1CC1` [Compound 6, 6-(5-cyclopropyl-6-methoxypyrazolo[1,5-a]pyrimidin-3-yl)-3-fluoro-N-((3S,4S)-4-fluoropiperidin-3-yl)pyridin-2-amine], the IC50 is 219 nM.

Take `COc1cn2ncc(-c3nc(N[C@@H]4CCCNC4)c(F)cc3F)c2nc1C(C)(C)O` [Compound 11, (R)-2-(3-(3,5-difluoro-6-(piperidin-3-ylamino)pyridin-2-yl)-6-methoxypyrazolo[1,5-a]pyrimidin-5-yl)propan-2-ol]: the IC50 is 101 nM.

Staying with this experiment, now noted: Table 21; THP-1-Blue cells, 1 ng/ml hIL1B, 24 h; read-out: NF-κB IL1B IC50.
As to `COc1cn2ncc(-c3cncc(N[C@@H]4CCCNC4)n3)c2nc1C1CC1` [Compound 11a, (R)-6-(5-cyclopropyl-6-methoxypyrazolo[1,5-a]pyrimidin-3-yl)-N-(piperidin-3-yl)pyrazin-2-amine], the IC50 came to 244 nM.

`COc1cn2ncc(-c3nc(N[C@@H]4CCCNC4)ncc3F)c2nc1C1CC1` [Compound 14a, (R)-4-(5-cyclopropyl-6-methoxypyrazolo[1,5-a]pyrimidin-3-yl)-5-fluoro-N-(piperidin-3-yl)pyrimidin-2-amine]: the IC50 turned out to be 22 nM.

`COc1cn2ncc(-c3ccnc(N[C@H]4CNC[C@@H]4F)n3)c2nc1C1CC1` [Compound 8a, 4-(5-cyclopropyl-6-methoxypyrazolo[1,5-a]pyrimidin-3-yl)-N-((3S,4S)-4-fluoropyrrolidin-3-yl)pyrimidin-2-amine]: the IC50 turned out to be 46 nM. Consider `COc1cn2ncc(-c3nc(N[C@H]4CNCC[C@@H]4F)ncc3F)c2nc1C(C)(C)O` [Compound 6a, 2-(3-(5-fluoro-2-(((3S,4S)-4-fluoropiperidin-3-yl)amino)pyrimidin-4-yl)-6-methoxypyrazolo[1,5-a]pyrimidin-5-yl)propan-2-ol], for which the IC50 stood at 52 nM. Still for that read-out and setting: to `COc1cn2ncc(-c3nc(N[C@H]4CNCC[C@@H]4F)ncc3F)c2nc1C1CC1` [Compound 15a, 4-(5-cyclopropyl-6-methoxypyrazolo[1,5-a]pyrimidin-3-yl)-5-fluoro-N-((3S,4S)-4-fluoropiperidin-3-yl)pyrimidin-2-amine] belongs 8 nM; to `COc1cn2ncc(-c3cncc(N[C@H]4CNCC[C@@H]4F)n3)c2nc1C1CC1` [Compound 12a, 6-(5-cyclopropyl-6-methoxypyrazolo[1,5-a]pyrimidin-3-yl)-N-((3S,4S)-4-fluoropiperidin-3-yl)pyrazin-2-amine], 55 nM; to `COc1cn2ncc(-c3ccnc(N[C@H]4CNCC[C@@H]4F)n3)c2nc1C1CC1` [Compound 7a, 4-(5-cyclopropyl-6-methoxypyrazolo[1,5-a]pyrimidin-3-yl)-N-((3S,4S)-4-fluoropiperidin-3-yl)pyrimidin-2-amine], 50 nM.

Take `COc1cn2ncc(-c3nc(N[C@H]4CNC[C@@H]4F)ncc3F)c2nc1C1CC1` [Compound 13a, 4-(5-cyclopropyl-6-methoxypyrazolo[1,5-a]pyrimidin-3-yl)-5-fluoro-N-((3S,4S)-4-fluoropyrrolidin-3-yl)pyrimidin-2-amine]: the IC50 worked out at 27 nM.
